# Laboratory results: PMC11024012, “Design, synthesis, and biochemical and computational screening of novel oxindole derivatives as inhibitors of Aurora A kinase and SARS-CoV-2 spike/host ACE2 interaction” (Medicinal Chemistry Research, 2024)
# Several values for one entry are separate records, joined by “and”; a condition that tells them apart may be missing. Equal values may be shown once. Read-outs that look alike come from different tables or passages of the source.
# How the values were obtained:
# Aurora A kinase = molecular target: T1, Aurora A kinase (Homo sapiens, UniProt O14965); assay: Aurora A kinase inhibition assay (HTRF kinase assay / Z′-LYTE Kinase Assay Kit ser/thr 01 peptide); assay type: biochemical; conditions: for inhibition at 32 µM: 32 μM compound, read-out: Aurora A Kinase Percent block at 32 μM; for IC50: ATP 500 μM, Aurora A kinase 2.7–4.7 nM
# T1 sequence (O14965 1-403): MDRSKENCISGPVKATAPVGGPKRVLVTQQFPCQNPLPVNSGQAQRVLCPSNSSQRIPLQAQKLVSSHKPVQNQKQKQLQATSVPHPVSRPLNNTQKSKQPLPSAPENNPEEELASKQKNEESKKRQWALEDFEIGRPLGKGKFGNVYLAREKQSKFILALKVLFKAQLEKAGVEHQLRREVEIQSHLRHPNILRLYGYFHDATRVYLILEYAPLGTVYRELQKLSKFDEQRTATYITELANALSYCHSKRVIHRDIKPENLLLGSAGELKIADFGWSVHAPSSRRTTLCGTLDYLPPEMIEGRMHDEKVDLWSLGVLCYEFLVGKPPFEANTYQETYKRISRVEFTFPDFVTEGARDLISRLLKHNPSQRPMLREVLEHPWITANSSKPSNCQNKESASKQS
# Protocol: The activities of the synthesized compounds were evaluated using Invitrogen Z′-LYTE® Kinase Assay Kitser/thr 01 peptide. The bioassay was performed using Aurora A kinase at an optimum concentration of 2.7–4.7 nM and ATP at a concentration of 500 μM. Stock solutions of molecules were prepared at 10 mM in DMSO, and then serially diluted in buffer solution to yield final hit concentrations ranging from 0.01 μM to 100 μM. […] The percentage of inhibition and IC50 value were calculated using nonlinear regression of the log (concentration) vs inhibition percentage values using GraphPad Prism 7.04.
# [1] = molecular target: T2, SARS-CoV-2 Spike RBD/ACE2 (Homo sapiens, UniProt Q9BYF1); assay: biochemical; assay type: binding, SARS-CoV-2 (Wuhan / USA-WA/2020 wild-type) spike; human ACE2; conditions: for inhibition at 32 µM: read-out: Spike RBD/ACE2 Percent block at 32 μM
# T2 construct: 5 nM HIS-tagged SARS-CoV-2 Spike-RBDs; purchased Sino Biological
# T2 sequence (Q9BYF1 18-740): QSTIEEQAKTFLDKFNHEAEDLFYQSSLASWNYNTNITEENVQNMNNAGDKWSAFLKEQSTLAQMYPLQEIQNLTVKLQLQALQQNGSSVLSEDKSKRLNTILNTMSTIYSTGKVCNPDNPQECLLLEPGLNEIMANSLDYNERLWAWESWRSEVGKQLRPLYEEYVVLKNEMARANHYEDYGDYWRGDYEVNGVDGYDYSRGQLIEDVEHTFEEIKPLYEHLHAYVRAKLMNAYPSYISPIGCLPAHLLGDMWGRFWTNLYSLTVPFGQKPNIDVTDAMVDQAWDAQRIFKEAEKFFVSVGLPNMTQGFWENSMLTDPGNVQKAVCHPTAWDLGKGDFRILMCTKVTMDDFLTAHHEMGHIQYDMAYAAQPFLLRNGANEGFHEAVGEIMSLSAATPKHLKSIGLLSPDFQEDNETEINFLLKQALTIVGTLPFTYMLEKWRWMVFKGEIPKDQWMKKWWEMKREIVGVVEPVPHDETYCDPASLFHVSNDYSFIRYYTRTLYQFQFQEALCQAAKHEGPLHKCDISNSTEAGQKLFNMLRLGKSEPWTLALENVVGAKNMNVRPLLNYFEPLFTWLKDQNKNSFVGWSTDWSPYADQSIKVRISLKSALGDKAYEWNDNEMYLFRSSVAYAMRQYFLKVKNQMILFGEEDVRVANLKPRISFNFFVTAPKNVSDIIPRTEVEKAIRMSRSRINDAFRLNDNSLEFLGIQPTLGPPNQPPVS
Molecule,inhibition at 32 µM (Aurora A kinase),inhibition at 32 µM [1],IC50 (Aurora A kinase),IC50 ([1]; Spike RBD/ACE2 IC50),IC50 ([1]; read-out: Spike RBD/ACE2 IC50),Spike RBD/ACE2 Percent block at 32 μM [1]
"CC(=O)Nc1ccc2c(c1)C1(OCC(C)(C)CO1)C(=O)N2 [Compound 4a, N-(5’,5’-dimethyl-2-oxospiro[indoline-3,2’-[1,3]dioxan]-5-yl)acetamide]",9.1 ± 6.5%,0%,–,–,–,–
"CC1(C)COC2(OC1)C(=O)Nc1ccc(NC(=O)Cc3ccc(Cl)cc3)cc12 [Compound 4b, 2-(4-chlorophenyl)-N-(5’,5’-dimethyl-2-oxospiro[indoline-3,2’-[1,3]dioxan]-5-yl)acetamide]",20.9 ± 6.3%,20.1 ± 11.5%,–,–,–,–
"CC1(C)COC2(OC1)C(=O)Nc1ccc(NC(=O)CCN3CCOCC3)cc12 [Compound 4c, N-(5’,5’-dimethyl-2-oxospiro[indoline-3,2’-[1,3]dioxan]-5-yl)-3-morpholinopropanamide]",1.6 ± 2.1%,2 ± 2.9%,–,–,–,–
"CC1(C)COC2(OC1)C(=O)Nc1ccc(NC(=O)c3ccc(Cl)cc3)cc12 [Compound 4d, 4-chloro-N-(5’,5’-dimethyl-2-oxospiro[indoline-3,2’-[1,3]dioxan]-5-yl)benzamide]",17.8 ± 9.2%,22.5 ± 5.7%,–,–,–,–
"CC(=O)Nc1ccc2c(c1)/C(=N\Nc1ccc(C)cc1)C(=O)N2 [Compound 6a, (E)-N-(2-oxo-3-(2-(p-tolyl)hydrazineylidene)indolin-5-yl)acetamide]",82.7 ± 2.7%,21.5 ± 4.8%,0.8 ± 0.1 µM,–,–,–
"CC(=O)Nc1ccc2c(c1)/C(=N\Nc1ccc(Cl)cc1Cl)C(=O)N2 [Compound 6b, (E)-N-(3-(2-(2,4-dichlorophenyl)hydrazineylidene)-2-oxoindolin-5-yl)acetamide]",26.4 ± 0.6%,21.5 ± 6.2%,–,–,–,–
"CC(=O)Nc1ccc2c(c1)/C(=N\Nc1ccncc1)C(=O)N2 [Compound 6c, (E)-N-(2-oxo-3-(2-(pyridine-4-yl)hydrazineylidene)indolin-5-yl)acetamide]",58.1 ± 1.7%,5.2 ± 4.1%,5.5 ± 0.5 µM,–,–,–
"Cc1ccc(N/N=C2/C(=O)Nc3ccc(NC(=O)Cc4ccc(Cl)cc4)cc32)cc1 [Compound 6d, (E)-2-(4-chlorophenyl)-N-(2-oxo-3-(2-(p-tolyl)hydrazineylidene)indolin-5-yl)acetamide]",54.2 ± 6.7%,3.2 ± 0.4%,22.8 ± 7.9 µM,–,–,–
"O=C(Cc1ccc(Cl)cc1)Nc1ccc2c(c1)/C(=N\Nc1ccc(Cl)cc1Cl)C(=O)N2 [Compound 6e, (E)-2-(4-chlorophenyl)-N-(3-(2-(2,4-dichlorophenyl)hydrazineylidene)-2-oxoindolin-5-yl)acetamide]",10 ± 4.9%,10.4 ± 12.1%,–,–,–,–
"O=C(Cc1ccc(Cl)cc1)Nc1ccc2c(c1)/C(=N\Nc1ccc(C(F)(F)F)cc1)C(=O)N2 [Compound 6f, (E)-2-(4-chlorophenyl)-N-(2-oxo-3-(2-(4(trifluoromethyl)phenyl)hydrazineylidene)indolin-5-yl)acetamide]",87.8 ± 2.9%,27.1 ± 3.9%,1.8 ± 0.2 µM,–,–,–
"O=C(CCN1CCOCC1)Nc1ccc2c(c1)/C(=N\Nc1ccc(Cl)cc1Cl)C(=O)N2 [Compound 6h, (E)-N-(3-(2-(2,4-dichlorophenyl)hydrazineylidene)-2-oxoindolin-5-yl)-3-morpholinopropanamide]",10.3 ± 7.1%,21.3 ± 5.6%,–,–,–,–
"O=C(CCN1CCOCC1)Nc1ccc2c(c1)/C(=N\Nc1ccc(C(F)(F)F)cc1)C(=O)N2 [Compound 6i, (E)-3-morpholino-N-(2-oxo-3-(2-(4(trifluoromethyl)phenyl)hydrazineylidene)indolin-5-yl)propanamide]",79.3 ± 1.5%,64.5 ± 9%,4.8 ± 0.3 µM,12.1 ± 2.9 µM,< 30 µM and 22.4 µM,–
"Cc1ccc(N/N=C2/C(=O)Nc3ccc(NC(=O)c4ccc(Cl)cc4)cc32)cc1 [Compound 6j, (E)-4-chloro-N-(2-oxo-3-(2-(p-tolyl)hydrazineylidene)indolin-5-yl)benzamide]",13.2 ± 8.2%,2.8 ± 4%,–,–,–,–
"O=C1Nc2ccc(NC(=O)c3ccc(Cl)cc3)cc2/C1=N\Nc1ccc(Cl)cc1Cl [Compound 6k, (E)-4-chloro-N-(3-(2-(2,4-dichlorophenyl)hydrazineylidene)-2-oxoindolin-5-yl)benzamide]",13.4 ± 14.6%,34.4 ± 20.4%,–,–,–,–
"O=C1Nc2ccc(NC(=O)c3ccc(Cl)cc3)cc2/C1=N\Nc1ccc(C(F)(F)F)cc1 [Compound 6l, (E)-4-chloro-N-(2-oxo-3-(2-(4(trifluoromethyl)phenyl)hydrazineylidene)indolin-5-yl)benzamide]",19.4 ± 13.5%,44.2 ± 9%,–,–,–,–
"O=C1Nc2ccc(NC(=O)c3ccc(Cl)cc3)cc2/C1=N\Nc1ccncc1 [Compound 6m, (E)-4-chloro-N-(2-oxo-3-(2-(pyridine-4-yl)hydrazineylidene)indolin-5-yl)benzamide]",80.2 ± 1.2%,0%,3.1 ± 1.3 µM,–,–,–
"CCS(=O)(=O)Nc1ccc2c(c1)/C(=C(/Nc1ccc(CN3CCCCC3)cc1)c1ccccc1)C(=O)N2 [Hesperadin, reference compound]",93.8 ± 0.8%,43.3 ± 10.6%,0.0053 ± 0.0027 µM,–,–,–
Hopeaphenol [reference compound],–,–,–,–,0.3 ± 0.1 µM,83.6 ± 2.0%
